Assays:
Format in all cases: cell-based, human
[1] = system: clone C2 (3×NFAT response element linked to beta-lactamase, M1 muscurinic receptor); experiment: Relative beta-lactamase activity of control clone C2; details: PMA 8 nM, Thaps 1 microM, CsA 100 nM, PHA 10 microgram/ml
Excerpt: (§1) Isolated clones from PHA-induced (Example 6) and PHA-repressed (Example 7) procedures described above were characterized to determine the specificity of their modulation and time required for induction or repression. Clones were stimulated with multiple activators or inhibitors over a one to twenty-four hour time interval.
(§2) In this study, PMA, which is a PKC activator, Thapsigargin which increases intracellular calcium, PHA which activates the T-cell receptor pathway, and cyclosporin A which is a clinically approved immunosuppressant that inhibits the Ca^2+ dependent phosphates calcineurin were investigated for their ability to modulate beta-lactamase expression in PHA induced and repressed BLEC clones.

[2] = system: BLEC Jurkat clones; experiment: Specificity of activated BLEC Jurkat clones, relative beta-lactamase activity; details: PMA 8 nM, Thaps 1 microM, CsA 100 nM, PHA 10 microgram/ml
Excerpt: as §1, §2

[3] = system: induced BLEC Jurkat clones; experiment: Characterization of induced BLEC Jurkat clones, change in 460/530 ratio; details: PHA 10 microgram/ml, Thaps 1 microM, PMA 8 nM, Anti-CD3 2 microgram/ml
Excerpt: These clones represent cells in which the trapping construct had integrated into a gene up regulated by PHA (T-cell) activation. Thus, these cells report the transcriptional activation of a gene upon cellular activation. Individual clones were identified and isolated by FACS using CCF2/AM to detect beta-lactamase activity. This clone isolation method, the induced sorting paradigm, used three sequential and independent stimulation and sorting protocols. […] These control cells were all green.
These isolated clones were expanded and tested for PHA inducibility by microscopic inspection with and without PHA stimulation in the presence of CCF2/AM. A total of fifty-five PHA inducible clones were identified using this procedure. The PHA inducibility for these clones ranged from a 1.5 to 40 fold change in the 460/530 ratio as compared to unstimulated control cells. Genomic Southern analysis using a DNA probe encoding beta-lactamase established that these clones represented 34 independent stable vector integration events. A list of clones obtained by the methods of the present invention and their characteristics is provided below in Table 6 and Table 7.
In addition to PHA inducible clones, Phobol 12-myristate 13-acetate (PMA) (Calbiochem), Thapsigargin (Thaps) (Calbiochem), and PMA+Thaps inducible clones were isolated using the general procedure set forth above using the indicated inducer rather than PHA. PMA is a specific activator of PKC (protein kinase C) and Thaps is a specific activator of intracellular calcium ion release (Thaps). These clones were isolated using three rounds of FACS using the general procedures described for the PHA inducible clones in Example 5. In such instances, other stimulants were substituted for PHA. PMA was provided at 8 nM, Thaps was provided at 1 microM. When these two stimulants were combined, their concentration was not changed. […] By using varied selection conditions, it is possible to isolate functionally distinct clones downstream of the desired signaling target.
Table 7 and Table 8 provide data similar to that provided in Table 5 for all of the clones obtained by the methods of Examples 5 to 7.

In the case of `C/C=C(/C)C(=O)O[C@H]1C(C)=C2[C@H]([C@@H]1OC(=O)CCCCCCC)[C@@](C)(OC(C)=O)C[C@H](OC(=O)CCC)[C@@]1(O)[C@H]2OC(=O)[C@@]1(C)O` [Thaps, Thapsigargin], the “Relative Beta-Lactamase Activity of the Clone by the Indicated Stimulus After 24 hours (% of maximum activated stimuli)” value [1] was 0%, the “Relative Beta-Lactamase Activity of the Clone by the Indicated Stimulus After 24 hours (% of maximum activated stimuli)” value ([2]; clone J32-6D4) was 1-2% and the “Relative Beta-Lactamase Activity of the Clone by the Indicated Stimulus After 24 hours (% of maximum activated stimuli)” value ([2]; clone J83 97-PPTR2 (repressed paradigm)) was 85%. The “Relative Beta-Lactamase Activity of the Clone by the Indicated Stimulus After 24 hours (% of maximum activated stimuli)” value ([2]; clone J83-PI9) was 100%, the “Relative Beta-Lactamase Activity of the Clone by the Indicated Stimulus After 24 hours (% of maximum activated stimuli)” value ([2]; clone J83-PTI8) was 100% and the “Relative Beta-Lactamase Activity of the Clone by the Indicated Stimulus After 24 hours (% of maximum activated stimuli)” value ([2]; clone J389-PTI4) was 5%. The “Change in 460/530 ratio in the indicated clone by the following activator” value (“Change in 460/530 ratio” below) ([3]; clone J83PI1) was 3-4, the “Change in 460/530 ratio” value ([3]; clone J83PI2) was 1-2 and the “Change in 460/530 ratio” value ([3]; clone J83PI3) was 6-7. For the same compound, the “Change in 460/530 ratio” value ([3]; clone J83PI4) was 3-4, the “Change in 460/530 ratio” value ([3]; clone J83PI6) was 7-8 and the “Change in 460/530 ratio” value ([3]; clone J83PI7) was 2. For the same compound, the “Change in 460/530 ratio” value ([3]; clone J83PI8) was 1-2, the “Change in 460/530 ratio” value ([3]; clone J83PI9) was 5-6 and the “Change in 460/530 ratio” value ([3]; clone J83PI13) was 2-3. For the same compound, the “Change in 460/530 ratio” value ([3]; clone J83PI14) was 2, the “Change in 460/530 ratio” value ([3]; clone J83PI15) was 2 and the “Change in 460/530 ratio” value ([3]; clone J83PI16) was 1-2. For the same compound, the “Change in 460/530 ratio” value ([3]; clone J83PI18) was 7-8, the “Change in 460/530 ratio” value ([3]; clone J83PI19) was 1-2 and the “Change in 460/530 ratio” value ([3]; clone J97PI1) was 3-4. The “Change in 460/530 ratio” value ([3]; clone J97PI3) was 1-2, the “Change in 460/530 ratio” value ([3]; clone J97PI4) was 1-2 and the “Change in 460/530 ratio” value ([3]; clone J97PI5) was 1.9. For the same compound, the “Change in 460/530 ratio” value ([3]; clone J97PI6) was 4-6, the “Change in 460/530 ratio” value ([3]; clone J97PI7) was 4-5 and the “Change in 460/530 ratio” value ([3]; clone J97PI8) was 3-4. For the same compound, the “Change in 460/530 ratio” value ([3]; clone J97PI9) was 4-5, the “Change in 460/530 ratio” value ([3]; clone J97PI10) was 3-4 and the “Change in 460/530 ratio” value ([3]; clone J97PI11) was 5-6. For the same compound, the “Change in 460/530 ratio” value ([3]; clone J97PI12) was 5-6, the “Change in 460/530 ratio” value ([3]; clone J97PI13) was 5-6 and the “Change in 460/530 ratio” value ([3]; clone J97PI14) was 3-4. For the same compound, the “Change in 460/530 ratio” value ([3]; clone J97PI15) was 3-4, the “Change in 460/530 ratio” value ([3]; clone J97PI17) was 7-8 and the “Change in 460/530 ratio” value ([3]; clone J97PI18) was 3-4. The “Change in 460/530 ratio” value ([3]; clone J97PI19) was 2-3, the “Change in 460/530 ratio” value ([3]; clone J97PI20) was 2-3 and the “Change in 460/530 ratio” value ([3]; clone J97PI21) was 2-3. The “Change in 460/530 ratio” value ([3]; clone J97PI22) was 5-7, the “Change in 460/530 ratio” value ([3]; clone J97PI23) was 4-5 and the “Change in 460/530 ratio” value ([3]; clone J97PI24) was 3-4. For the same compound, the “Change in 460/530 ratio” value ([3]; clone J97PI116) was 3-4, the “Change in 460/530 ratio” value ([3]; clone J325B11) was 1-2 and the “Change in 460/530 ratio” value ([3]; clone J326C9) was 1-2. For the same compound, the “Change in 460/530 ratio” value ([3]; clone J326D4) was 0, the “Change in 460/530 ratio” value ([3]; clone J389PM2) was 3-4 and the “Change in 460/530 ratio” value ([3]; clone J389PM3) was 2-3. The “Change in 460/530 ratio” value ([3]; clone J389PM5) was 3-4, the “Change in 460/530 ratio” value ([3]; clone J389PM7) was 2-3 and the “Change in 460/530 ratio” value ([3]; clone J389PM8) was 3-4. For the same compound, the “Change in 460/530 ratio” value ([3]; clone J389PT4) was 10, the “Change in 460/530 ratio” value ([3]; clone J389PTt) was 3-4 and the “Change in 460/530 ratio” value ([3]; clone J389TI1) was 2-3. The “Change in 460/530 ratio” value ([3]; clone J389TI4) was 3-4.

From patent US20020025940A1, “Methods and compositions for sensitive and rapid, functional identification of genomic polynucleotides and use for cellular assays in drug discovery” (Aurora Biosciences Corporation, priority 1997, published 2002)
